# Assay results from patent US20060069132A1, “Azolecarboxamide herbicides” (priority 2004, published 2006).
# Columns and labels:
# redroot pigweed = test: Test A pre-/postemergence herbicide test; type: in vivo, Amaranthus retroflexus
# Outline: (§1)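 Visual injury rating on a 0–100 scale (0 no effect, 100 complete control) versus untreated controls, about ten days after treatment in greenhouse. Pre: directed soil spray onto seeded sandy loam. Post: spray to runoff on plants 2–10 cm tall at one- to two-leaf stage.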
# barnyardgrass [1] = test: Test A pre-/postemergence herbicide test; type: in vivo, Echinochloa crus-galli
# Outline: as §1
# corn = test: Test B pre-/postemergence herbicide test; type: in vivo, Zea mays; conditions: for Plant response rating, Corn: preemergence; for Corn plant response rating: postemergence, visual rating, scale 0 (no effect) to 100 (complete control)
# Outline: (§2)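 Test chemicals in a non-phytotoxic solvent mixture with surfactant were applied preemergence to seeded species and postemergence to plants 2-18 cm tall (1- to 4-leaf stage); rice and barnyardgrass were also tested in a flooded paddy at the 2-leaf stage. Visual rating versus controls after 13-15 days in greenhouse, scale 0 (no effect) to 100 (complete control).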
# rice = test: Test B flooded paddy test; type: in vivo, Oryza sativa; conditions: 1000 g ai/ha, visual rating, scale 0 to 100 (0 no effect, 100 complete control), 13 to 15 days
# Outline: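 Paddy species grown to the 2-leaf stage under flooding; blackgrass sprayed postemergence at 2–18 cm (1- to 4-leaf stage). Plants kept in a greenhouse for 13 to 15 days, then visually rated against controls on 0 (no effect) to 100 (complete control).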
# wild oat = test: Test B postemergence herbicide test; type: in vivo, Avena fatua; conditions: postemergence, visual rating, scale 0 (no effect) to 100 (complete control)
# Outline: (§3)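 Plants grow to 1- to 4-leaf stage (2–18 cm) for postemergence spraying, or to 2-leaf stage for the paddy test. Formulated compound is applied. Greenhouse holding lasts 13–15 days. Response is scored visually relative to controls, 0 no effect to 100 complete control; a dash means no result.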
# barnyardgrass [2] = test: Test B flooded paddy test; type: in vivo, Echinochloa crus-galli; conditions: 1000 g ai/ha, visual rating, scale 0 to 100 (0 no effect, 100 complete control), 13 to 15 days
# Outline: (§4)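 Formulated test chemicals went onto postemergence plants measuring 2 to 18 cm, at one to four leaves. For the paddy assay, species had reached two leaves. Scoring took place 13–15 days later by eye, relative to untreated plants, using 0 for no effect up to 100 for full control.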
# pigweed = test: Test B pre-/postemergence herbicide test; type: in vivo, Amaranthus retroflexus; conditions: for Plant response rating, Pigweed: preemergence; for Pigweed plant response rating: postemergence, visual rating, scale 0 (no effect) to 100 (complete control)
# Outline: as §2
# cocklebur = test: Test B pre-/postemergence herbicide test; type: in vivo, Xanthium strumarium; conditions: for Plant response rating, Cocklebur: preemergence; for Cocklebur plant response rating: postemergence, visual rating, scale 0 (no effect) to 100 (complete control)
# Outline: (§5)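 Plants compared with untreated controls 13–15 days post-treatment and given a visual 0–100 injury score. Applications: preemergence to seeds; postemergence at 1- to 4-leaf (2–18 cm); paddy species flooded, 2-leaf stage. Vehicle non-phytotoxic, surfactant included.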
# ducksalad = test: Test B flooded paddy test; type: in vivo, Heteranthera limosa; conditions: 1000 g ai/ha, visual rating, scale 0 to 100 (0 no effect, 100 complete control), 13 to 15 days
# Outline: as §4
# velvetleaf [3] = test: Test A pre-/postemergence herbicide test; type: in vivo, Abutilon theophrasti
# Outline: as §1
# large crabgrass [4] = test: Test A pre-/postemergence herbicide test; type: in vivo, Digitaria sanguinalis
# Outline: as §1
# blackgrass = test: Test B postemergence herbicide test; type: in vivo, Alopecurus myosuroides; conditions: postemergence, visual rating, scale 0 (no effect) to 100 (complete control)
# Outline: as §4
# giant foxtail [5] = test: Test B pre-/postemergence herbicide test; type: in vivo, Setaria faberi; conditions: for Plant response rating, Foxtail, Giant: preemergence; for Foxtail, Giant plant response rating: postemergence, visual rating, scale 0 (no effect) to 100 (complete control)
# Outline: as §2
# giant foxtail [6] = test: Test A pre-/postemergence herbicide test; type: in vivo, Setaria faberi
# Outline: as §1
# Surinam grass = test: Test B pre-/postemergence herbicide test; type: in vivo, Urochloa decumbens; conditions: for Plant response rating, Surinam Grass: preemergence; for Surinam Grass plant response rating: postemergence, visual rating, scale 0 (no effect) to 100 (complete control)
# Outline: as §2
# [7] = test system: small flower umbrella sedge; test: Test B flooded paddy test; type: in vivo, Cyperus difformis; conditions: 1000 g ai/ha, visual rating, scale 0 to 100 (0 no effect, 100 complete control), 13 to 15 days
# Outline: as §4
# wheat = test: Test B postemergence herbicide test; type: in vivo, Triticum aestivum; parameters: key to Wheat plant response rating: 0 = no effect, 100 = complete control; conditions: postemergence, visual rating, scale 0 (no effect) to 100 (complete control)
# Outline: as §3
# large crabgrass [8] = test: Test B pre-/postemergence herbicide test; type: in vivo, Digitaria sanguinalis; conditions: for Plant response rating, Crabgrass, Large: preemergence; for Crabgrass, Large plant response rating: postemergence, visual rating, scale 0 (no effect) to 100 (complete control)
# Outline: as §2
# lambsquarters = test: Test B pre-/postemergence herbicide test; type: in vivo, Chenopodium album; conditions: for Plant response rating, Lambsquarters: preemergence; for Lambsquarters plant response rating: postemergence, visual rating, scale 0 (no effect) to 100 (complete control)
# Outline: as §2
# morningglory [9] = test: Test A pre-/postemergence herbicide test; type: in vivo, Ipomoea spp.
# Outline: as §1
# barnyardgrass [10] = test: Test B pre-/postemergence herbicide test; type: in vivo, Echinochloa crus-galli; conditions: for Plant response rating, Barnyardgrass: preemergence; for Barnyardgrass plant response rating: postemergence, visual rating, scale 0 (no effect) to 100 (complete control)
# Outline: as §5
# velvetleaf [11] = test: Test B pre-/postemergence herbicide test; type: in vivo, Abutilon theophrasti; conditions: for Plant response rating, Velvetleaf: preemergence; for Velvetleaf plant response rating: postemergence, visual rating, scale 0 (no effect) to 100 (complete control)
# Outline: as §2
# morningglory [12] = test: Test B pre-/postemergence herbicide test; type: in vivo, Ipomoea coccinea; conditions: for Morningglory plant response rating: postemergence, visual rating, scale 0 (no effect) to 100 (complete control)
# Outline: as §5
# [13] = Postemergence, 500 g ai/ha, 0 to 100 scale, 0 no effect, 100 complete control
# [14] = Postemergence, 2000 g ai/ha, 0 to 100 scale, 0 no effect, 100 complete control
# [15] = Preemergence, 2000 g ai/ha, visual rating, 0 to 100 scale (0 no effect, 100 complete control)
# [16] = preemergence, 500 g ai/ha, visual injury, 0 to 100 scale (0 no effect, 100 complete control)
# [17] = Preemergence, 500 g ai/ha, visual rating, 0 to 100 scale (0 no effect, 100 complete control)
# [18] = 500 g ai/ha, visual rating 0-100, 0 no effect, 100 complete control
# [19] = 125 g ai/ha, 0 to 100 scale, 0 is no effect, 100 is complete control
smiles,measurement,setting,value
CCCCNS(=O)(=O)c1cccc(NC(=O)c2cc(C(C)(C)C)nn2C)c1 [Compound 125],Pigweed plant response rating,redroot pigweed; [13],20
same,"Plant response rating, Pigweed",redroot pigweed; [14],20
same,Pigweed plant response rating,redroot pigweed; [15],0
same,Pigweed plant response rating,redroot pigweed; [16],0
same,Barnyardgrass plant response rating,barnyardgrass [1]; [13],0
same,"Plant response rating, Barnyardgrass",barnyardgrass [1]; [14],0
same,Barnyardgrass plant response rating,barnyardgrass [1]; [17],0
same,Barnyardgrass plant response rating,barnyardgrass [1]; [15],0
same,"Plant response rating, Corn",corn; [18],0
same,Corn plant response rating,corn; 125 g ai/ha,0
same,Corn plant response rating,corn; 500 g ai/ha,0
same,"Plant response rating, Corn",corn; [19],0
same,Rice plant response rating,rice,0
same,"Oat, Wild plant response rating",wild oat; 125 g ai/ha,0
same,"Oat, Wild plant response rating",wild oat; 500 g ai/ha,0
same,Barnyardgrass plant response rating,barnyardgrass [2],0
same,"Plant response rating, Pigweed",pigweed; [18],0
same,Pigweed plant response rating,pigweed; 125 g ai/ha,0
same,Pigweed plant response rating,pigweed; 500 g ai/ha,0
same,"Plant response rating, Pigweed",pigweed; [19],0
same,"Plant response rating, Cocklebur",cocklebur; [18],0
same,Cocklebur plant response rating,cocklebur; 125 g ai/ha,0
same,Cocklebur plant response rating,cocklebur; 500 g ai/ha,0
same,"Plant response rating, Cocklebur",cocklebur; [19],0
same,Ducksalad plant response rating,ducksalad,0
same,Velvetleaf plant response rating,velvetleaf [3]; [13],0
same,"Plant response rating, Velvetleaf",velvetleaf [3]; [14],0
same,Velvetleaf plant response rating,velvetleaf [3]; [15],0
same,Velvetleaf plant response rating,velvetleaf [3]; [16],0
same,"Crabgrass, Large plant response rating",large crabgrass [4]; [13],0
same,"Plant response rating, Crabgrass, Large",large crabgrass [4]; [14],0
same,"Crabgrass, Large plant response rating",large crabgrass [4]; [17],0
same,"Crabgrass, Large plant response rating",large crabgrass [4]; [15],0
same,Blackgrass plant response rating,blackgrass; 125 g ai/ha,0
same,Blackgrass plant response rating,blackgrass; 500 g ai/ha,0
same,"Plant response rating, Foxtail, Giant",giant foxtail [5]; [18],0
same,"Foxtail, Giant plant response rating",giant foxtail [5]; 125 g ai/ha,0
same,"Foxtail, Giant plant response rating",giant foxtail [5]; 500 g ai/ha,0
same,"Plant response rating, Foxtail, Giant",giant foxtail [5]; [19],0
same,"Foxtail, Giant plant response rating",giant foxtail [6]; [13],0
same,"Plant response rating, Foxtail, Giant",giant foxtail [6]; [14],0
same,"Foxtail, Giant plant response rating",giant foxtail [6]; [17],0
same,"Foxtail, Giant plant response rating",giant foxtail [6]; [15],0
same,"Plant response rating, Surinam Grass",Surinam grass; [18],0
same,Surinam Grass plant response rating,Surinam grass; 125 g ai/ha,0
same,Surinam Grass plant response rating,Surinam grass; 500 g ai/ha,10
same,"Plant response rating, Surinam Grass",Surinam grass; [19],0
same,"Sedge, Umbrella plant response rating",[7],0
same,Wheat plant response rating,wheat; 125 g ai/ha,0
same,Wheat plant response rating,wheat; 500 g ai/ha,0
same,"Plant response rating, Crabgrass, Large",large crabgrass [8]; [18],0
same,"Crabgrass, Large plant response rating",large crabgrass [8]; 125 g ai/ha,0
same,"Crabgrass, Large plant response rating",large crabgrass [8]; 500 g ai/ha,0
same,"Plant response rating, Crabgrass, Large",large crabgrass [8]; [19],0
same,"Plant response rating, Lambsquarters",lambsquarters; [18],0
same,Lambsquarters plant response rating,lambsquarters; 125 g ai/ha,0
same,Lambsquarters plant response rating,lambsquarters; 500 g ai/ha,20
same,"Plant response rating, Lambsquarters",lambsquarters; [19],0
same,Morningglory plant response rating,morningglory [9]; [13],0
same,"Plant response rating, Morningglory",morningglory [9]; [14],0
same,Morningglory plant response rating,morningglory [9]; [17],0
same,Morningglory plant response rating,morningglory [9]; [15],0
same,"Plant response rating, Barnyardgrass",barnyardgrass [10]; [18],0
same,Barnyardgrass plant response rating,barnyardgrass [10]; 125 g ai/ha,0
same,Barnyardgrass plant response rating,barnyardgrass [10]; 500 g ai/ha,0
same,"Plant response rating, Barnyardgrass",barnyardgrass [10]; [19],0
same,"Plant response rating, Velvetleaf",velvetleaf [11]; [18],0
same,Velvetleaf plant response rating,velvetleaf [11]; 125 g ai/ha,0
same,Velvetleaf plant response rating,velvetleaf [11]; 500 g ai/ha,0
same,"Plant response rating, Velvetleaf",velvetleaf [11]; [19],0
same,Morningglory plant response rating,morningglory [12]; 125 g ai/ha,0
same,Morningglory plant response rating,morningglory [12]; 500 g ai/ha,0
same,"Plant response rating, Morningglory","morningglory [12]; preemergence, 125 g ai/ha, 0 to 100 scale, 0 is no effect, 100 is complete control",0
